Measurements reported in ChEMBL document CHEMBL1201862, “PubChem BioAssay data set” (2004).
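Test compounds were applied to cells in 96-well plates for 48 hours at 5 doses. GI50 is the concentration that inhibits growth by half.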 Activity calls are given as the source filed them. No stated cut-off is given here; in the data, active = GI50 up to about 1.1 µM and inactive = higher.

Columns and labels:
Test in all cases: NCI anticancer screen, dose series, 48 h
[1] = system: UACC-62
[2] = system: RXF 393
[3] = system: SF-295
[4] = system: K562
[5] = system: LXFL 529
[6] = system: NCI-H23
[7] = system: U-251
[8] = system: EKVX
[9] = system: SK-MEL-2
[10] = system: COLO 205
[11] = system: SW-620
[12] = system: NCI-H522
[13] = system: OVCAR-4
[14] = system: SK-OV-3
[15] = system: MOLT-4
[16] = system: ACHN
[17] = system: M14
[18] = system: CCRF-CEM
[19] = system: HCC 2998
[20] = system: HOP-92
[21] = system: NCI-H226
[22] = system: DMS-273
[23] = system: SNB-78
[24] = system: SK-MEL-28
[25] = system: OVCAR-8
[26] = system: SF-539
[27] = system: SN12C
[28] = system: UO-31
[29] = system: Malme-3M
[30] = system: RPMI-8226
[31] = system: HOP-18
[32] = system: SNB-19
[33] = system: LOX IMVI
[34] = system: NCI-H460
[35] = system: SK-MEL-5
[36] = system: UACC-257
[37] = system: IGROV-1
[38] = system: OVCAR-5
[39] = system: A549
[40] = system: SF-268
[41] = system: XF498
[42] = system: HCT-15
[43] = system: HL-60
[44] = system: M19-MEL
[45] = system: HCT-116
[46] = system: SNB-75
[47] = system: DMS-114
[48] = system: DLD-1
[49] = system: 786-0
[50] = system: HT-29
[51] = system: KM-20L2
[52] = system: TK-10
[53] = system: KM12
[54] = system: OVCAR-3
[55] = system: SR
[56] = system: HOP-62
[57] = system: A498
[58] = system: CAKI-1

NC1=NS(=O)(=O)Nc2[nH]c(-c3ccccc3)nc21
GI50 [1]: > 100 µM (inactive)
GI50 [2]: > 100 µM (inactive)
GI50 [3]: > 100 µM (inactive)
GI50 [4]: > 100 µM (inactive)
GI50 [5]: > 100 µM (inactive)
GI50 [6]: > 100 µM (inactive)
GI50 [7]: > 100 µM (inactive)
GI50 [8]: > 100 µM (inactive)
GI50 [9]: > 100 µM (inactive)
GI50 [10]: > 100 µM (inactive)
GI50 [11]: > 100 µM (inactive)
GI50 [12]: > 100 µM (inactive)
GI50 [13]: > 100 µM (inactive)
GI50 [14]: > 100 µM (inactive)
GI50 [15]: > 100 µM (inactive)
GI50 [16]: > 100 µM (inactive)
GI50 [17]: > 100 µM (inactive)
GI50 [18]: > 100 µM (inactive)
GI50 [19]: > 100 µM (inactive)
GI50 [20]: > 100 µM (inactive)
GI50 [21]: > 100 µM (inactive)
GI50 [22]: > 100 µM (inactive)
GI50 [23]: > 100 µM (inactive)
GI50 [24]: > 100 µM (inactive)
GI50 [25]: > 100 µM (inactive)
GI50 [26]: > 100 µM (inactive)
GI50 [27]: > 100 µM (inactive)
GI50 [28]: > 100 µM (inactive)
GI50 [29]: > 100 µM (inactive)
GI50 [30]: > 100 µM (inactive)
GI50 [31]: > 100 µM (inactive)
GI50 [32]: > 100 µM (inactive)
GI50 [33]: > 100 µM (inactive)
GI50 [34]: > 100 µM (inactive)
GI50 [35]: > 100 µM (inactive)
GI50 [36]: > 100 µM (inactive)
GI50 [37]: > 100 µM (inactive)
GI50 [38]: > 100 µM (inactive)
GI50 [39]: > 100 µM (inactive)
GI50 [40]: > 100 µM (inactive)
GI50 [41]: > 100 µM (inactive)
GI50 [42]: > 100 µM
GI50 [43]: > 100 µM (inactive)
GI50 [44]: > 100 µM (inactive)
GI50 [45]: > 100 µM (inactive)
GI50 [46]: > 100 µM (inactive)
GI50 [47]: > 100 µM (inactive)
GI50 [48]: > 100 µM (inactive)
GI50 [49]: > 100 µM (inactive)
GI50 [50]: > 100 µM (inactive)
GI50 [51]: > 100 µM (inactive)
GI50 [52]: > 100 µM (inactive)
GI50 [53]: > 100 µM (inactive)
GI50 [54]: > 100 µM (inactive)
GI50 [55]: > 100 µM (inactive)

Nc1ncnc2c1nnn2C1C=C(CO)C(O)C1O (stereo unspecified)
GI50 [1]: > 100 µM (inactive)
GI50 [2]: > 77.1 µM (inactive)
GI50 [3]: > 100 µM (inactive)
GI50 [4]: 40.8 µM (inactive)
GI50 [5]: > 100 µM (inactive)
GI50 [6]: > 78.9 µM (inactive)
GI50 [7]: > 100 µM (inactive)
GI50 [56]: > 92 µM (inactive)
GI50 [8]: > 100 µM (inactive)
GI50 [9]: > 60 µM (inactive)
GI50 [10]: > 36 µM (inactive)
GI50 [11]: 29.4 µM (inactive)
GI50 [12]: > 100 µM (inactive)
GI50 [13]: 32.4 µM (inactive)
GI50 [14]: > 100 µM (inactive)
GI50 [15]: > 100 µM (inactive)
GI50 [16]: > 53.5 µM (inactive)
GI50 [17]: > 52.2 µM (inactive)
GI50 [18]: 50.7 µM (inactive)
GI50 [19]: 22.5 µM (inactive)
GI50 [20]: 14.3 µM (inactive)
GI50 [21]: > 100 µM (inactive)
GI50 [22]: 44 µM (inactive)
GI50 [23]: > 86.7 µM (inactive)
GI50 [24]: 65.3 µM (inactive)
GI50 [25]: 39.4 µM (inactive)
GI50 [26]: > 85.3 µM (inactive)
GI50 [27]: 33 µM (inactive)
GI50 [28]: 42.5 µM (inactive)
GI50 [57]: > 100 µM (inactive)
GI50 [29]: > 100 µM (inactive)
GI50 [30]: 20.3 µM (inactive)
GI50 [31]: 95.3 µM (inactive)
GI50 [32]: > 100 µM (inactive)
GI50 [33]: 38.6 µM (inactive)
GI50 [34]: 40.8 µM (inactive)
GI50 [35]: > 100 µM (inactive)
GI50 [36]: > 100 µM (inactive)
GI50 [37]: > 100 µM (inactive)
GI50 [58]: 74 µM (inactive)
GI50 [38]: 48.3 µM (inactive)
GI50 [39]: 58.1 µM (inactive)
GI50 [40]: 42.7 µM (inactive)
GI50 [41]: > 100 µM (inactive)
GI50 [42]: 26.6 µM
GI50 [43]: 12.1 µM (inactive)
GI50 [44]: > 79.1 µM (inactive)
GI50 [45]: 27.8 µM (inactive)
GI50 [46]: 30.9 µM (inactive)
GI50 [47]: 44.5 µM (inactive)
GI50 [48]: 35.2 µM (inactive)
GI50 [49]: 53.2 µM (inactive)
GI50 [50]: 35.3 µM (inactive)
GI50 [51]: 50.5 µM (inactive)
GI50 [52]: > 92.5 µM (inactive)
GI50 [53]: 36.6 µM (inactive)
GI50 [54]: > 100 µM (inactive)

O=C(O)COc1ccc2c3c1C(=O)CCC3CO2 (stereo unspecified)
GI50 [1]: > 100 µM (inactive)
GI50 [3]: > 100 µM (inactive)
GI50 [4]: > 100 µM (inactive)
GI50 [5]: > 100 µM (inactive)
GI50 [6]: > 100 µM (inactive)
GI50 [7]: > 100 µM (inactive)
GI50 [56]: > 100 µM (inactive)
GI50 [8]: > 100 µM (inactive)
GI50 [9]: > 100 µM (inactive)
GI50 [10]: > 100 µM (inactive)
GI50 [11]: > 100 µM (inactive)
GI50 [12]: > 100 µM (inactive)
GI50 [13]: > 100 µM (inactive)
GI50 [14]: > 100 µM (inactive)
GI50 [15]: > 100 µM (inactive)
GI50 [16]: > 100 µM (inactive)
GI50 [17]: > 100 µM (inactive)
GI50 [18]: > 100 µM (inactive)
GI50 [19]: > 100 µM (inactive)
GI50 [20]: > 100 µM (inactive)
GI50 [22]: > 100 µM (inactive)
GI50 [23]: > 100 µM (inactive)
GI50 [24]: > 100 µM (inactive)
GI50 [25]: > 100 µM (inactive)
GI50 [26]: > 100 µM (inactive)
GI50 [27]: > 100 µM (inactive)
GI50 [28]: > 100 µM (inactive)
GI50 [57]: > 100 µM (inactive)
GI50 [29]: > 100 µM (inactive)
GI50 [30]: > 100 µM (inactive)
GI50 [31]: > 100 µM (inactive)
GI50 [32]: > 100 µM (inactive)
GI50 [33]: > 100 µM (inactive)
GI50 [34]: > 100 µM (inactive)
GI50 [35]: > 100 µM (inactive)
GI50 [36]: > 100 µM (inactive)
GI50 [37]: > 100 µM (inactive)
GI50 [58]: > 100 µM (inactive)
GI50 [38]: > 100 µM (inactive)
GI50 [39]: > 100 µM (inactive)
GI50 [40]: > 100 µM (inactive)
GI50 [41]: > 100 µM (inactive)
GI50 [42]: > 100 µM
GI50 [43]: > 100 µM (inactive)
GI50 [44]: > 100 µM (inactive)
GI50 [45]: > 100 µM (inactive)
GI50 [47]: > 100 µM (inactive)
GI50 [48]: > 100 µM (inactive)
GI50 [49]: > 100 µM (inactive)
GI50 [50]: > 100 µM (inactive)
GI50 [51]: > 100 µM (inactive)
GI50 [52]: > 100 µM (inactive)
GI50 [53]: > 100 µM (inactive)
GI50 [54]: > 100 µM (inactive)

Cc1nc(Nc2ccccc2)sc1C(=O)NNc1ccc([N+](=O)[O-])cc1[N+](=O)[O-]
GI50 [1]: 5.94 µM (inactive)
GI50 [2]: 35.2 µM (inactive)
GI50 [3]: 27.5 µM (inactive)
GI50 [4]: 12 µM (inactive)
GI50 [5]: 28.7 µM (inactive)
GI50 [6]: 17.5 µM (inactive)
GI50 [7]: 38.6 µM (inactive)
GI50 [56]: 41.9 µM (inactive)
GI50 [8]: 18.9 µM (inactive)
GI50 [9]: 38.5 µM (inactive)
GI50 [10]: 30.3 µM (inactive)
GI50 [11]: 39.9 µM (inactive)
GI50 [12]: 19.5 µM (inactive)
GI50 [13]: 29.6 µM (inactive)
GI50 [14]: 40.6 µM (inactive)
GI50 [15]: 24.7 µM (inactive)
GI50 [16]: 14.2 µM (inactive)
GI50 [17]: 38.9 µM (inactive)
GI50 [18]: 14.2 µM (inactive)
GI50 [19]: 43.7 µM (inactive)
GI50 [21]: 85.5 µM (inactive)
GI50 [22]: 25.7 µM (inactive)
GI50 [23]: 49.2 µM (inactive)
GI50 [24]: > 100 µM (inactive)
GI50 [25]: 39.2 µM (inactive)
GI50 [26]: 32.7 µM (inactive)
GI50 [27]: 49 µM (inactive)
GI50 [28]: 24 µM (inactive)
GI50 [29]: 43.9 µM (inactive)
GI50 [31]: 21.5 µM (inactive)
GI50 [32]: 47.1 µM (inactive)
GI50 [33]: 21.4 µM (inactive)
GI50 [34]: 31.9 µM (inactive)
GI50 [35]: 25.5 µM (inactive)
GI50 [36]: 43.5 µM (inactive)
GI50 [37]: 45.9 µM (inactive)
GI50 [58]: 31.5 µM (inactive)
GI50 [38]: 33.7 µM (inactive)
GI50 [39]: 93.5 µM (inactive)
GI50 [40]: 75.5 µM (inactive)
GI50 [41]: 24.3 µM (inactive)
GI50 [42]: 26.2 µM
GI50 [43]: 13.9 µM (inactive)
GI50 [44]: 36 µM (inactive)
GI50 [45]: 42.4 µM (inactive)
GI50 [46]: 22.7 µM (inactive)
GI50 [47]: 23.3 µM (inactive)
GI50 [48]: 25.5 µM (inactive)
GI50 [49]: 27.9 µM (inactive)
GI50 [50]: 35 µM (inactive)
GI50 [51]: 24.7 µM (inactive)
GI50 [52]: 52.5 µM (inactive)
GI50 [53]: 34.4 µM (inactive)
GI50 [54]: 34.4 µM (inactive)
GI50 [55]: 14.7 µM (inactive)
